pKi: −log10 of the molar value.
Biological target: T1, SYK kinase (Homo sapiens, UniProt P43405)
T1 construct: purchased Invitrogen, Carlsbad
Experiment: SYK Assay (OMNIA KINASE ASSAY, SOX peptide fluorescence)
Assay type: biochemical
Settings: apparent Ki calculated from the IC50 using the Cheng-Prusoff equation; 1 mM ATP, 30° C.; read-out: SYK Activities: Ki
Description: In the assay OMNIA® KINASE ASSAY by Invitrogen Corporation (Carlsbad) the effect of invention of a compound on the phosphorylation is determined by measurement of fluorescence intensity of a chelation-enhanced fluorophore called SOX. Upon phosphorylation of the peptide by the kinase of interest, Mg2+ is chelated to form a bridge between the SOX moiety and the phosphate group that is transferred to the specific tyrosine on the peptide. The fluorescence intensity is directly proportional to the amount of peptide phosphorylation.
To the wells of an 384 well small volume plate (Greiner, Frickenhausen) are added (i) the compound under test in 5% DMSO/distilled water (2 μl), (ii) 16 μl of the master mix containing ATP, DTT, Kinase Reaction Buffer, Omina Peptide Substrate Tyr 7 resulting in a final concentration of 1 mM ATP, 0.2 mM DTT and 10 μM Peptide Substrate.
The Master Mix and the assay plate was incubated to reaction temperature before the measurement (30° C.). The reaction was started with addition of (iii) 2 μl 4 μg/ml SYK kinase (Invitrogen, Carlsbad). During measurement fluorescence intensitiy readings were collected using a TECAN M1000 at a wavelength of λex 360/λem 485 nm every 30 s for 30 minutes. The reaction velocity was plotted versus the inhibitor concentration to determine the […] using XLFit 5.0 (IDBS, Guildford) to fit to a sigmoidal dose response curve, and the apparent Ki values were calculated from the IC50 using the Cheng-Prusoff equation (Cheng, Y.; Prusoff, W. H. Biochem. Pharmacol. 22, 3099-3108, 1973).

Structure (SMILES) | pKi
FS(F)(F)(F)(F)c1cccc(-c2nc(Nc3ccc(N4CCOCC4)cc3)c3[nH]ncc3n2)c1 [Example #220, 5-(3-(pentafluorosulfanyl)phenyl)-N-(4-morpholinophenyl)-1H-pyrazolo[4,3-d]pyrimidin-7-amine] | 7.00 to 8.00
CN1CCN(c2ccc(Nc3nc(-c4cccc(S(F)(F)(F)(F)F)c4)nc4cn[nH]c34)cc2)CC1 [Example #221, N-(4-(4-methylpiperazin-1-yl)phenyl)-5-(3-(pentafluorosulfanyl)phenyl)-1H-pyrazolo[4,3-d]pyrimidin-7-amine] | 7.00 to 8.00
CSc1cccc(-c2nc(Nc3ccc(N4CCOCC4)cc3)c3[nH]ncc3n2)c1 [Example #224, 5-(3-(methylthio)phenyl)-N-(4-morpholinophenyl)-1H-pyrazolo[4,3-d]pyrimidin-7-amine] | 6.00 to 7.00
Clc1cccc(-c2nc(Nc3ccc(N4CCOCC4)cc3)c3[nH]ncc3n2)c1 [Example #231, 5-(3-chlorophenyl)-N-(4-morpholinophenyl)-1H-pyrazolo[4,3-d]pyrimidin-7-amine] | 7.00 to 8.00
COC(=O)c1ccc(-c2nc(Nc3ccc(N4CCOCC4)cc3)c3[nH]ncc3n2)cc1 [Example #242, methyl 4-(7-((4-morpholinophenyl)amino)-1H-pyrazolo[4,3-d]pyrimidin-5-yl)benzoate] | 7.00 to 8.00
O=C(O)c1ccc(-c2nc(Nc3ccc(N4CCOCC4)cc3)c3[nH]ncc3n2)cc1 [Example #243, 4-(7-((4-morpholinophenyl)amino)-1H-pyrazolo[4,3-d]pyrimidin-5-yl)benzoic acid] | > 8.00
Cc1nc2cc(Nc3nc(-c4cccs4)nc4cn[nH]c34)ccc2[nH]1 [Example #245, N-(2-methyl-1H-benzo[d]imidazol-5-yl)-5-(thiophen-2-yl)-1H-pyrazolo[4,3-d]pyrimidin-7-amine] | > 8.00
CC(=O)N1CCN(c2ccc(Nc3nc(-c4cccc(S(C)(=O)=O)c4)nc4cn[nH]c34)cc2)CC1 [Example #246, 1-(4-(4-((5-(3-(methylsulfonyl)phenyl)-1H-pyrazolo[4,3-d]pyrimidin-7-yl)amino)phenyl)piperazin-1-yl)ethan-1-one] | > 8.00
CS(=O)(=O)c1cccc(Nc2nc(-c3cccc(S(C)(=O)=O)c3)nc3cn[nH]c23)c1 [Example #253, N,5-bis(3-(methylsulfonyl)phenyl)-1H-pyrazolo[4,3-d]pyrimidin-7-amine] | 7.00 to 8.00
CC(=O)N1CCN(c2ccc(Nc3nc(-c4cnc5cc[nH]c5c4)nc4cn[nH]c34)cc2)CC1 [Example #256, 1-(4-(4-((5-(1H-pyrrolo[3,2-b]pyridin-6-yl)-1H-pyrazolo[4,3-d]pyrimidin-7-yl)amino)phenyl)piperazin-1-yl)ethan-1-one] | > 8.00
c1cc2ncc(-c3nc(Nc4ccc(N5CCOCC5)cc4)c4[nH]ncc4n3)cc2[nH]1 [Example #258, N-(4-morpholinophenyl)-5-(1H-pyrrolo[3,2-b]pyridin-6-yl)-1H-pyrazolo[4,3-d]pyrimidin-7-amine] | 7.00 to 8.00
Cc1nc2cc(Nc3nc(-c4cnc5cc[nH]c5c4)nc4cn[nH]c34)ccc2[nH]1 [Example #259, N-(2-methyl-1H-benzo[d]imidazol-5-yl)-5-(1H-pyrrolo[3,2-b]pyridin-6-yl)-1H-pyrazolo[4,3-d]pyrimidin-7-amine] | 6.00 to 7.00
CN(C)S(=O)(=O)c1ccc(Nc2nc(-c3cccs3)nc3cn[nH]c23)cc1 [Example #260, N,N-dimethyl-4-((5-(thiophen-2-yl)-1H-pyrazolo[4,3-d]pyrimidin-7-yl)amino)benzenesulfonamide] | 7.00 to 8.00
c1cc(Nc2nc(-c3cccs3)nc3cn[nH]c23)cc(-n2nccn2)c1 [Example #262, N-(3-(2H-1,2,3-triazol-2-yl)phenyl)-5-(thiophen-2-yl)-1H-pyrazolo[4,3-d]pyrimidin-7-amine] | 6.00 to 7.00
c1csc(-c2nc(Nc3ccc(-n4nccn4)cc3)c3[nH]ncc3n2)c1 [Example #263, N-(4-(2H-1,2,3-triazol-2-yl)phenyl)-5-(thiophen-2-yl)-1H-pyrazolo[4,3-d]pyrimidin-7-amine] | 6.00 to 7.00
CN(C)S(=O)(=O)c1cccc(Nc2nc(-c3cccs3)nc3cn[nH]c23)c1 [Example #264, N,N-dimethyl-3-((5-(thiophen-2-yl)-1H-pyrazolo[4,3-d]pyrimidin-7-yl)amino)benzenesulfonamide] | 6.00 to 7.00
O=S(=O)(c1cccc(Nc2nc(-c3cccs3)nc3cn[nH]c23)c1)N1CCOCC1 [Example #266, N-(3-(morpholinosulfonyl)phenyl)-5-(thiophen-2-yl)-1H-pyrazolo[4,3-d]pyrimidin-7-amine] | 6.00 to 7.00
Fc1ccc(-c2nc(Nc3ccc(N4CCOCC4)cc3)c3[nH]ncc3n2)cc1F [Example #273, 5-(3,4-difluorophenyl)-N-(4-morpholinophenyl)-1H-pyrazolo[4,3-d]pyrimidin-7-amine] | 7.00 to 8.00

Continued, values first:

pKi | Structure (SMILES)
6.00 to 7.00 | COC(=O)c1cccc(-c2nc(Nc3ccc4c(c3)NC(=O)CCC4)c3[nH]ncc3n2)c1 [Example #217, methyl 3-(7-((2-oxo-2,3,4,5-tetrahydro-1H-benzo[b]azepin-8-yl)amino)-1H-pyrazolo[4,3-d]pyrimidin-5-yl)benzoate]
6.00 to 7.00 | COc1ccc(Nc2nc(-c3cccc(S(F)(F)(F)(F)F)c3)nc3cn[nH]c23)cc1OC [Example #219, N-(3,4-dimethoxyphenyl)-5-(3-(pentafluorosulfanyl)phenyl)-1H-pyrazolo[4,3-d]pyrimidin-7-amine]
6.00 to 7.00 | O=C1CCc2ccc(Nc3nc(-c4cccc(S(F)(F)(F)(F)F)c4)nc4cn[nH]c34)cc2N1 [Example #222, 7-((5-(3-(pentafluorosulfanyl)phenyl)-1H-pyrazolo[4,3-d]pyrimidin-7-yl)amino)-3,4-dihydroquinolin-2(1H)-one]
7.00 to 8.00 | COc1ccc(Nc2nc(-c3cccc(SC)c3)nc3cn[nH]c23)cc1OC [Example #223, N-(3,4-dimethoxyphenyl)-5-(3-(methylthio)phenyl)-1H-pyrazolo[4,3-d]pyrimidin-7-amine]
7.00 to 8.00 | COc1ccc(Nc2nc(-c3cccc(OC(F)(F)F)c3)nc3cn[nH]c23)cc1OC [Example #226, N-(3,4-dimethoxyphenyl)-5-(3-(trifluoromethoxy)phenyl)-1H-pyrazolo[4,3-d]pyrimidin-7-amine]
7.00 to 8.00 | FC(F)(F)Oc1cccc(-c2nc(Nc3ccc(N4CCOCC4)cc3)c3[nH]ncc3n2)c1 [Example #227, N-(4-morpholinophenyl)-5-(3-(trifluoromethoxy)phenyl)-1H-pyrazolo[4,3-d]pyrimidin-7-amine]
7.00 to 8.00 | COc1ccc(Nc2nc(-c3cccc(C(F)(F)F)c3)nc3cn[nH]c23)cc1OC [Example #228, N-(3,4-dimethoxyphenyl)-5-(3-(trifluoromethyl)phenyl)-1H-pyrazolo[4,3-d]pyrimidin-7-amine]
7.00 to 8.00 | FC(F)(F)c1cccc(-c2nc(Nc3ccc(N4CCOCC4)cc3)c3[nH]ncc3n2)c1 [Example #229, N-(4-morpholinophenyl)-5-(3-(trifluoromethyl)phenyl)-1H-pyrazolo[4,3-d]pyrimidin-7-amine]
7.00 to 8.00 | COc1ccc(Nc2nc(-c3cccc(Cl)c3)nc3cn[nH]c23)cc1OC [Example #230, 5-(3-chlorophenyl)-N-(3,4-dimethoxyphenyl)-1H-pyrazolo[4,3-d]pyrimidin-7-amine]
7.00 to 8.00 | CSc1cccc(-c2nc(Nc3ccc4c(c3)NC(=O)CC4)c3[nH]ncc3n2)c1 [Example #236, 7-((5-(3-(methylthio)phenyl)-1H-pyrazolo[4,3-d]pyrimidin-7-yl)amino)-3,4-dihydroquinolin-2(1H)-one]
> 8.00 | COc1ccc(Nc2nc(-c3ccc(C(=O)O)cc3)nc3cn[nH]c23)cc1OC [Example #244, 4-(7-((3,4-dimethoxyphenyl)amino)-1H-pyrazolo[4,3-d]pyrimidin-5-yl)benzoic acid]
7.00 to 8.00 | COc1ccc(Nc2nc(-c3cccc(S(C)(=O)=O)c3)nc3cn[nH]c23)cc1OC [Example #249, N-(3,4-dimethoxyphenyl)-5-(3-(methylsulfonyl)phenyl)-1H-pyrazolo[4,3-d]pyrimidin-7-amine]
6.00 to 7.00 | O=S(=O)(c1cccc(Nc2nc(-c3cccs3)nc3cn[nH]c23)c1)C(F)(F)F [Example #267, 5-(thiophen-2-yl)-N-(3-((trifluoromethyl)sulfonyl)phenyl)-1H-pyrazolo[4,3-d]pyrimidin-7-amine]
7.00 to 8.00 | COc1ccc(Nc2nc(-c3ccc(F)cc3)nc3cn[nH]c23)cc1OC [Example #270, N-(3,4-dimethoxyphenyl)-5-(4-fluorophenyl)-1H-pyrazolo[4,3-d]pyrimidin-7-amine]
6.00 to 7.00 | COc1ccc(Nc2nc(-c3ccc(F)c(F)c3)nc3cn[nH]c23)cc1OC [Example #272, 5-(3,4-difluorophenyl)-N-(3,4-dimethoxyphenyl)-1H-pyrazolo[4,3-d]pyrimidin-7-amine]
6.00 to 7.00 | COc1ccc(Nc2nc(-c3cc(F)cc(F)c3)nc3cn[nH]c23)cc1OC [Example #274, 5-(3,5-difluorophenyl)-N-(3,4-dimethoxyphenyl)-1H-pyrazolo[4,3-d]pyrimidin-7-amine]

— patent US9802937B2, “Substituted pyrazolo{4,3-D}pyrimidines as kinase inhibitors” (ORIGENIS GMBH, priority 2011, dated 2017)
